Test results as given in US20210045385A1, “PYRIDAZINONE-SUBSTITUTED KETOXIMES AS HERBICIDES” (FMC Corporation, priority 2018, published 2021).

Experiments:
Assay type in all cases: in vivo
kochia (Kochia scoparia) [1] = assay: Test A preemergence, visual plant response rating; conditions: approx. 10 days
In short: (§1)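 Ratings use a 0–100 visual scale (100 = complete control) against untreated controls, scored about 10 days after greenhouse treatment. Test chemicals were formulated in surfactant-containing non-phytotoxic solvent and applied either as soil spray after planting (preemergence) or onto one- to two-leaf, 2–10 cm plants (postemergence).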

[2] = tested on: ragweed (common ragweed, Ambrosia elatior); assay: Test A preemergence, visual plant response rating; conditions: approx. 10 days
In short: as §1

[3] = tested on: barnyardgrass (Echinochloa crus-galli); assay: Test A preemergence, visual plant response rating; conditions: approx. 10 days
In short: as §1

[4] = tested on: foxtail, green (green foxtail, Setaria viridis); assay: Test A preemergence, visual plant response rating; conditions: approx. 10 days
In short: as §1

[5] = tested on: Italian ryegrass (Lolium multiflorum); assay: Test A preemergence, visual plant response rating; conditions: approx. 10 days
In short: as §1

[6] = tested on: pigweed (Amaranthus retroflexus); assay: Test A preemergence, visual plant response rating; conditions: approx. 10 days
In short: as §1

kochia (Kochia scoparia) [7] = assay: Test A postemergence, visual plant response rating; conditions: for Kochia plant response rating (0 to 100 scale): 500 g ai/ha, postemergence, 0 is no effect, 100 is complete control
In short: as §1

[8] = tested on: ragweed (common ragweed, Ambrosia elatior); assay: Test A postemergence, visual plant response rating; conditions: for Ragweed plant response rating (0 to 100 scale): 500 g ai/ha, postemergence, 0 is no effect, 100 is complete control
In short: as §1

corn (Zea mays) = assay: Test A postemergence, visual plant response rating; conditions: for Corn plant response rating (0 to 100 scale): 500 g ai/ha, postemergence, 0 is no effect, 100 is complete control
In short: as §1

[9] = tested on: wheat (Triticum aestivum); assay: Test A postemergence, visual plant response rating; conditions: for Wheat plant response rating (0 to 100 scale): 500 g ai/ha, postemergence, 0 is no effect, 100 is complete control
In short: as §1

[10] = tested on: barnyardgrass (Echinochloa crus-galli); assay: Test A postemergence, visual plant response rating; conditions: for Barnyardgrass plant response rating (0 to 100 scale): 500 g ai/ha, postemergence, 0 is no effect, 100 is complete control
In short: as §1

[11] = tested on: foxtail, green (green foxtail, Setaria viridis); assay: Test A postemergence, visual plant response rating; conditions: for Foxtail, Green plant response rating (0 to 100 scale): 500 g ai/ha, postemergence, 0 is no effect, 100 is complete control
In short: as §1

[12] = tested on: blackgrass (Alopecurus myosuroides); assay: Test A postemergence, visual plant response rating; conditions: for Blackgrass plant response rating (0 to 100 scale): 500 g ai/ha, postemergence, 0 is no effect, 100 is complete control
In short: as §1

[13] = tested on: Italian ryegrass (Lolium multiflorum); assay: Test A postemergence, visual plant response rating; conditions: for Ryegrass, Italian plant response rating (0 to 100 scale): 500 g ai/ha, postemergence, 0 is no effect, 100 is complete control
In short: as §1

[14] = tested on: pigweed (Amaranthus retroflexus); assay: Test A postemergence, visual plant response rating; conditions: for Pigweed plant response rating (0 to 100 scale): 500 g ai/ha, postemergence, 0 is no effect, 100 is complete control
In short: as §1

[15] = tested on: galium (catchweed bedstraw, Galium aparine); assay: Test A postemergence, visual plant response rating; conditions: 500 g ai/ha, postemergence; 0 is no effect, 100 is complete control
In short: as §1

[16] = tested on: sedge, umbrella (small-flower umbrella sedge, Cyperus difformis); assay: Test B flooded paddy test, visual plant response rating; conditions: 250 g ai/ha, Flood, applied to paddy water, 2-leaf stage, evaluated after 13 to 15 days
In short: (§2)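 Greenhouse paddy conditions applied: two-leaf plants, a 3 cm flood above the soil surface maintained throughout, and compound added to the water rather than the foliage. Plants were judged visually against controls at 13 to 15 days.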

[17] = tested on: barnyardgrass (Echinochloa crus-galli); assay: as above; conditions: 250 g ai/ha, Flood, applied to paddy water, 2-leaf stage, evaluated after 13 to 15 days
In short: as §2

[18] = tested on: ducksalad (Heteranhera limosa); assay: as above; conditions: 250 g ai/ha, Flood, applied to paddy water, 2-leaf stage, evaluated after 13 to 15 days
In short: as §2

rice (Oryza sativa) = assay: as above; conditions: 250 g ai/ha, Flood, applied to paddy water, 2-leaf stage, evaluated after 13 to 15 days
In short: as §2

[19] = Postemergence, 125 g ai/ha, 0 to 100 scale (0 no effect, 100 complete control)

Structure (SMILES) | Kochia plant response rating (0 to 100 scale) (kochia (Kochia scoparia) [1]; 500 g ai/ha Preemergence) | Ragweed plant response rating (0 to 100 scale) ([2]; 500 g ai/ha Preemergence) | Barnyardgrass plant response rating (0 to 100 scale) ([3]; 500 g ai/ha Preemergence) | Foxtail, Green plant response rating (0 to 100 scale) ([4]; 500 g ai/ha Preemergence) | Ryegrass, Italian plant response rating (0 to 100 scale) ([5]; 500 g ai/ha Preemergence) | Pigweed plant response rating (0 to 100 scale) ([6]; 500 g ai/ha Preemergence) | Kochia plant response rating (0 to 100 scale) (kochia (Kochia scoparia) [7]) | Ragweed plant response rating (0 to 100 scale) [8] | Corn plant response rating (0 to 100 scale) (corn (Zea mays)) | Wheat plant response rating (0 to 100 scale) [9] | Barnyardgrass plant response rating (0 to 100 scale) [10] | Foxtail, Green plant response rating (0 to 100 scale) [11] | Blackgrass plant response rating (0 to 100 scale) [12] | Ryegrass, Italian plant response rating (0 to 100 scale) [13] | Pigweed plant response rating (0 to 100 scale) [14] | also measured
CO/N=C(\c1cccc(C)c1)c1c(O)c(C2CC2)nn(C)c1=O [Compound 27] | 0 | 10 | 10 | 0 | 10 | 0 | 0 | 40 | 0 | 20 | 0 | 0 | 10 | 20 | 30 | Galium plant response rating (0 to 100 scale) [15]: 80
CO/N=C(\c1cccc(Cl)c1)c1c(O)c(C)nn(C)c1=O [Compound 10, 4-[(E)-(3-chlorophenyl)(methoxyimino)methyl]-5-hydroxy-2,6-dimethyl-3(2H)-pyridazinone] | 90 | 90 | 10 | 20 | 90 | 100 | 80 | 100 | 0 | 20 | 10 | 20 | 30 | 90 | 60 | Kochia plant response rating (0 to 100 scale) (kochia (Kochia scoparia) [1]; 125 g ai/ha Preemergence): 30; Ragweed plant response rating (0 to 100 scale) ([2]; 125 g ai/ha Preemergence): 70; Barnyardgrass plant response rating (0 to 100 scale) ([3]; 125 g ai/ha Preemergence): 0; Foxtail, Green plant response rating (0 to 100 scale) ([4]; 125 g ai/ha Preemergence): 20; Ryegrass, Italian plant response rating (0 to 100 scale) ([5]; 125 g ai/ha Preemergence): 30; Pigweed plant response rating (0 to 100 scale) ([6]; 125 g ai/ha Preemergence): 20; Kochia plant response rating (kochia (Kochia scoparia) [7]; [19]): 70; Ragweed plant response rating [8, 19]: 90; Corn plant response rating (corn (Zea mays); [19]): 0; Wheat plant response rating [9, 19]: 0; Barnyardgrass plant response rating [10, 19]: 0; Foxtail, Green plant response rating [11, 19]: 0; Blackgrass plant response rating [12, 19]: 10; Ryegrass, Italian plant response rating [13, 19]: 60; Pigweed plant response rating [14, 19]: 20; Plant response rating, Sedge, Umbrella (0 to 100 scale, 0 is no effect, 100 is complete control) [16]: 0; Plant response rating, Barnyardgrass (0 to 100 scale, 0 is no effect, 100 is complete control) [17]: 0; Plant response rating, Ducksalad (0 to 100 scale, 0 is no effect, 100 is complete control) [18]: 0; Plant response rating, Rice (0 to 100 scale, 0 is no effect, 100 is complete control) (rice (Oryza sativa)): 0
